Results reported in patent US9486417B2, “Transdermal therapeutic system for administering lipophilic and/or sparingly skin-permeable active substances” (LTS Lohmann Therapie-Systeme AG, priority 2005, dated 2016).
In brackets after ≈: the same amount, converted by molar mass. Where two headings read alike, the source gives them in different places.

How the values were obtained:
[1] = type: in vitro ADME
Protocol: The first preliminary tests carried out in accordance with the present invention with a view to developing a matrix transdermal therapeutic system for administration of vinpocetine led to transdermal therapeutic systems (TTSs) by means of which a skin flux (permeation rate in steady state) of 0.91 μg/cm^2×h could be achieved. In order to adjust the therapeutically required concentration of 2 to 3 ng/ml of vinpocetine in a patient's plasma, a transdermal therapeutic system that is designed for an application period of 24 hours would have to have an area of about 120 cm^2. For reasons of patient acceptance, however, the surface area of a transdermal therapeutic system should be kept as small as possible and, if possible, should not exceed 40 cm^2, preferably 20 cm^2.

[2] = 1% suspension of vinpocetine in ethanol and 1-menthol applied directly to human full-thickness skin in vitro; cited from earlier work
[3] = cited from earlier work; for half-life: oral administration
[4] = cited from earlier work
[5] = pH value of 7.4; cited from earlier work

skin flux (permeation rate in steady state) [1] [μg/cm^2×h]	SMILES	permeation rate [2] [μg/cm^2×h]	half-life [3]	time to enter the blood stream after administration ([3]; oral, fasting or with meals)	time until excreted by the body almost completely ([3]; oral)	water-solubility ([4]; room temperature) [µg/mL]	proportion present in cationic form [5]	bioavailability ([3]; gastrointestinal absorption, not metabolised presystemically)	therapeutically required / effective plasma level ([3]; patient's plasma)	water solubility ([4]; base, 22° C.) [µg/mL]	solubility in ethanol or DMSO ([4]; ethanol or DMSO)	water-solubility ([4]; base, 22° C.) [µg/mL]
0.91	CCOC(=O)C1=C[C@]2(CC)CCCN3CCc4c(n1c1ccccc41)[C@@H]32 [vinpocetine, ethyl apovincamin-22-oate]	6.45	one to two	about half an hour	eight	0.02	–	–	–	–	–	–
–	COc1nc(C)nc(Cl)c1NC1=NCCN1 [moxonidine, 4-chloro-N-(4,5-dihydro-1H-imidazol-2-yl)-6-methoxy-2-methyl-5-pyrimidinamine]	–	–	–	–	–	about 50%	about 90%	around 5.4 ng/ml	1360 (≈ 5.63 mM)	up to 100 mM	–
–	CCCN1C[C@H](CSC)C[C@@H]2c3cccc4[nH]cc(c34)C[C@H]21 [pergolide, D-6-n-propyl-8 β-methyl-mercaptomethyl-ergoline]	–	27 h	–	–	–	–	–	–	–	–	0.021
